Values of other authors in patent publication US12127976B2, “Eye-mountable therapeutic devices, and associated systems and methods” (Twenty Twenty Therapeutics LLC, priority 2018, dated 2024).
Structures can show the parent of a compound that is named as a salt.

Legend:
[1] = after topical administration; formulated as salts
[2] = in aqueous humor

Row | SMILES | time at which the maximum effect can be detected [1] | estimated half-life [2]
1 | CC(C)NCC(O)COc1ccc(CCOCC2CC2)cc1 (stereo not drawn) [betaxolol] | about 2 hours | –
2 | O=C(O)CCC/C=C\C[C@@H]1[C@@H](CC[C@@H](O)CCc2ccccc2)[C@H](O)C[C@@H]1O [latanoprost acid] | – | ~2.8 h
3 | CC(C)(C)NC[C@H](O)COc1nsnc1N1CCOCC1 [timolol maleate] | about 2 hours | –
